In patent publication US10253002B2, “Compounds and methods of treating infections” (Neoculi Pty Ltd., priority 2013, dated 2019):
In brackets after ≈: the same amount, converted by molar mass. Like-named read-outs stand apart in the source and are kept apart here.

Experiments:
[1] = tested on: MRSA; experiment: Broth microdilution MIC, Example 7 (NCL812 and analogues); format: cell-based, Staphylococcus aureus; conditions: Staphylococcus aureus, MRSA, read-out: MIC
In short: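 CLSI broth microdilution against two MRSA and two VRE strains, tested in duplicate with a third run if results differed by more than one two-fold dilution.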

[2] = tested on: S. pneumoniae isolates; experiment: Micro-broth dilution MIC, Example 5; format: cell-based, Streptococcus pneumoniae
Procedure: For all in vitro assays, fresh pneumococcal isolates were grown overnight (O/N) on horse blood agar (HBA) plates (39 g/L Columbia blood agar base [Oxoid] 5% [v/v] defribinated horse blood [Oxoid] at 37° C. with 5% supplemented CO2). Mueller-Hinton blood agar with 5% defibrinated sheep blood (MHSBA Roseworthy Media and Blood Service) was used for disk diffusion analysis as directed by Clinical Laboratory Standards Institute (CLSI) standards. Pneumococci were routinely grown in broth consisting of 4% lysed horse blood (LHB) with Cation Adjusted Mueller Hinton Broth (CAHMB, [Difco]) at 37° C. with 5% supplemented CO2. […] Isolates were stored in HSB at −80° C.
[Micro-broth dilutions and 96 well trays are prepared by the following method: 90 μL of 4% LHB:CAMHB is aliquotted into all wells using a multichannel pipette. 90 μL of working antimicrobial stocks were no serial diluted down the tray by a 1:2 dilution. Negative broth controls and dilution control were taken into account when planning the set up of a 96 well tray.] 10 μL of bacterial suspension was then added to the appropriate wells in the 96 well tray. Appropriate positive (no antimicrobial), negative (no antimicrobial or bacteria) and negative dilution (a serial dilution control of antimicrobial and broth) controls were included in each assay. […] The MBC was determined by a 99.95% inhibition of S. pneumoniae, taking into account the dilution factor. MICs and MBCs were determined in quadruplicate and the mode was taken as the representative value. The MIC50, MIC90 and MIC range and MBC50, MBC90 and MBC range were determined according to CLSI standards. The MIC50 and MIC90, or MBC50 and MBC90, are defined by the lowest concentrations which, when all the MICs and MBCs of the isolates are arranged from lowest to highest, inhibited the 50th and 90th percentile of the total amount of isolates, respectively.

Work on CC1(C)S[C@@H]2[C@H](NC(=O)[C@H](N)c3ccccc3)C(=O)N2[C@H]1C(=O)O [Ampicillin] yielded an MIC ([1]; MRSA 741, Phase II, 2nd) of 4 µg/mL (≈ 11.4 µM), an MIC ([1]; MRSA 747, Phase I, 1st) of over 128 µg/mL and an MIC ([1]; MRSA 747, Phase I, 2nd) of over 128 µg/mL. For the same molecule, the MIC ([1]; MRSA 747, Phase II, 1st) was 64 µg/mL (≈ 183 µM), the MIC ([1]; MRSA 747, Phase II, 2nd) was 64 µg/mL (≈ 183 µM) and the MIC ([1]; MRSA 773, Phase I, 1st) was 64 µg/mL (≈ 183 µM). The MIC ([1]; MRSA 773, Phase I, 2nd) was 64 µg/mL (≈ 183 µM), the MIC ([1]; MRSA 773, Phase II, 1st) was 64 µg/mL (≈ 183 µM) and the MIC ([1]; MRSA 773, Phase II, 2nd) was 64 µg/mL (≈ 183 µM). For the same molecule, the MIC ([1]; MRSA 778, Phase I, 1st) was over 128 µg/mL, the MIC ([1]; MRSA 778, Phase I, 2nd) was over 128 µg/mL and the MIC ([1]; MRSA 786, Phase I, 1st) was 32 µg/mL (≈ 91.6 µM). It also gave an MIC ([1]; MRSA 786, Phase I, 2nd) of 32 µg/mL (≈ 91.6 µM), an MIC ([1]; MRSA 786, Phase II, 1st) of 32 µg/mL (≈ 91.6 µM) and an MIC ([1]; MRSA 786, Phase II, 2nd) of 32 µg/mL (≈ 91.6 µM). It also gave an MIC ([1]; MRSA 787, Phase I, 1st) of over 128 µg/mL, an MIC ([1]; MRSA 787, Phase I, 2nd) of over 128 µg/mL and an MIC ([1]; MRSA 787, Phase II, 1st) of 64 µg/mL (≈ 183 µM). For the same molecule, the MIC ([1]; MRSA 787, Phase II, 2nd) was 64 µg/mL (≈ 183 µM), the MIC ([1]; MRSA 815, Phase I, 1st) was 64 µg/mL (≈ 183 µM) and the MIC ([1]; MRSA 815, Phase I, 2nd) was 64 µg/mL (≈ 183 µM). For the same molecule, the MIC ([1]; MRSA 815, Phase II, 1st) was 32 µg/mL (≈ 91.6 µM), the MIC ([1]; MRSA 815, Phase II, 2nd) was 32 µg/mL (≈ 91.6 µM) and the MIC ([1]; MRSA 823, Phase I, 1st) was over 128 µg/mL. It also gave an MIC ([1]; MRSA 823, Phase I, 2nd) of over 128 µg/mL, an MIC ([1]; MRSA 844, Phase II, 1st) of 64 µg/mL (≈ 183 µM) and an MIC ([1]; MRSA 844, Phase II, 2nd) of 32 µg/mL (≈ 91.6 µM). It also gave an MIC ([2]; Streptococcus pneumoniae, D39, 4% LHB:CAMHB, read-out: Relative MIC with media type for D39) of 0.023 µg/mL (≈ 0.0658 µM), an MIC ([2]; Streptococcus pneumoniae, D39, 10% horse serum-supplemented broth, read-out: Relative MIC with media type for D39) of 0.09 µg/mL (≈ 0.258 µM) and an MIC ([2]; Streptococcus pneumoniae, isolate A66.1, Table 22, CAMHB diluent for NCL062, read-out: MIC) of 0.045 µg/mL (≈ 0.129 µM). For the same molecule, the MIC ([2]; Streptococcus pneumoniae, isolate D39, Table 22, CAMHB diluent for NCL062, read-out: MIC) was 0.0225 µg/mL (≈ 0.0644 µM), the MIC ([2]; Streptococcus pneumoniae, isolate P21, Table 22, CAMHB diluent for NCL062, read-out: MIC) was 0.0225 µg/mL (≈ 0.0644 µM) and the MIC ([2]; Streptococcus pneumoniae, isolate WCH57, Table 22, CAMHB diluent for NCL062, read-out: MIC) was 0.09 µg/mL (≈ 0.258 µM). The MIC ([2]; Streptococcus pneumoniae, isolate WCH158, Table 22, CAMHB diluent for NCL062, read-out: MIC) was 0.0225 µg/mL (≈ 0.0644 µM), the MIC ([2]; Streptococcus pneumoniae, isolate WU-2, Table 22, CAMHB diluent for NCL062, read-out: MIC) was 0.0225 µg/mL (≈ 0.0644 µM) and the MIC ([2]; Streptococcus pneumoniae, pneumococcal isolate A66.1, read-out: MIC) was 0.045 µg/mL (≈ 0.129 µM). For the same molecule, the MIC ([2]; Streptococcus pneumoniae, pneumococcal isolate D39, read-out: MIC) was 0.023 µg/mL (≈ 0.0658 µM), the MIC ([2]; Streptococcus pneumoniae, pneumococcal isolate EF3030, read-out: MIC) was 0.023 µg/mL (≈ 0.0658 µM) and the MIC ([2]; Streptococcus pneumoniae, pneumococcal isolate L82016, read-out: MIC) was 0.023 µg/mL (≈ 0.0658 µM). The MIC ([2]; Streptococcus pneumoniae, pneumococcal isolate P9, read-out: MIC) was 0.023 µg/mL (≈ 0.0658 µM), the MIC ([2]; Streptococcus pneumoniae, pneumococcal isolate P21, read-out: MIC) was 0.023 µg/mL (≈ 0.0658 µM) and the MIC ([2]; Streptococcus pneumoniae, pneumococcal isolate TIGR4, read-out: MIC) was 0.023 µg/mL (≈ 0.0658 µM). The MIC ([2]; Streptococcus pneumoniae, pneumococcal isolate WCH16, read-out: MIC) was 0.023 µg/mL (≈ 0.0658 µM), the MIC ([2]; Streptococcus pneumoniae, pneumococcal isolate WCH43, read-out: MIC) was 0.023 µg/mL (≈ 0.0658 µM) and the MIC ([2]; Streptococcus pneumoniae, pneumococcal isolate WCH46, read-out: MIC) was 0.023 µg/mL (≈ 0.0658 µM). For the same molecule, the MIC ([2]; Streptococcus pneumoniae, pneumococcal isolate WCH57, read-out: MIC) was 0.023 µg/mL (≈ 0.0658 µM), the MIC ([2]; Streptococcus pneumoniae, pneumococcal isolate WCH77, read-out: MIC) was 0.023 µg/mL (≈ 0.0658 µM) and the MIC ([2]; Streptococcus pneumoniae, pneumococcal isolate WCH86, read-out: MIC) was 0.023 µg/mL (≈ 0.0658 µM). For the same molecule, the MIC ([2]; Streptococcus pneumoniae, pneumococcal isolate WCH89, read-out: MIC) was 0.023 µg/mL (≈ 0.0658 µM), the MIC ([2]; Streptococcus pneumoniae, pneumococcal isolate WCH92, read-out: MIC) was 0.09 µg/mL (≈ 0.258 µM) and the MIC ([2]; Streptococcus pneumoniae, pneumococcal isolate WCH137, read-out: MIC) was 0.023 µg/mL (≈ 0.0658 µM). It also gave an MIC ([2]; Streptococcus pneumoniae, pneumococcal isolate WCH158, read-out: MIC) of 0.023 µg/mL (≈ 0.0658 µM), an MIC ([2]; Streptococcus pneumoniae, pneumococcal isolate WCH184, read-out: MIC) of 0.045 µg/mL (≈ 0.129 µM) and an MIC ([2]; Streptococcus pneumoniae, pneumococcal isolate WCH211, read-out: MIC) of 0.023 µg/mL (≈ 0.0658 µM). The MIC ([2]; Streptococcus pneumoniae, pneumococcal isolate WU2, read-out: MIC) was 0.023 µg/mL (≈ 0.0658 µM), the MIC50 ([2]; Streptococcus pneumoniae, all S. pneumoniae isolates, read-out: MIC50) was 0.023 µg/mL (≈ 0.0658 µM) and the MIC90 ([2]; Streptococcus pneumoniae, all S. pneumoniae isolates, read-out: MIC90) was 0.023 µg/mL (≈ 0.0658 µM). For the same molecule, the “MIC range” value ([2]; all S. pneumoniae isolates) was 0.011 to 0.09 µg/mL.
